Values of other authors, collected in patent US9427470B2, “Hyaluronic acid stabilizer” (priority 2012, dated 2016).

Molecular target: CD44 (Homo sapiens, UniProt P16070)
Settings: Aruffo, et al., 1990

CD44, sequence (P16070 21-742, species assumed): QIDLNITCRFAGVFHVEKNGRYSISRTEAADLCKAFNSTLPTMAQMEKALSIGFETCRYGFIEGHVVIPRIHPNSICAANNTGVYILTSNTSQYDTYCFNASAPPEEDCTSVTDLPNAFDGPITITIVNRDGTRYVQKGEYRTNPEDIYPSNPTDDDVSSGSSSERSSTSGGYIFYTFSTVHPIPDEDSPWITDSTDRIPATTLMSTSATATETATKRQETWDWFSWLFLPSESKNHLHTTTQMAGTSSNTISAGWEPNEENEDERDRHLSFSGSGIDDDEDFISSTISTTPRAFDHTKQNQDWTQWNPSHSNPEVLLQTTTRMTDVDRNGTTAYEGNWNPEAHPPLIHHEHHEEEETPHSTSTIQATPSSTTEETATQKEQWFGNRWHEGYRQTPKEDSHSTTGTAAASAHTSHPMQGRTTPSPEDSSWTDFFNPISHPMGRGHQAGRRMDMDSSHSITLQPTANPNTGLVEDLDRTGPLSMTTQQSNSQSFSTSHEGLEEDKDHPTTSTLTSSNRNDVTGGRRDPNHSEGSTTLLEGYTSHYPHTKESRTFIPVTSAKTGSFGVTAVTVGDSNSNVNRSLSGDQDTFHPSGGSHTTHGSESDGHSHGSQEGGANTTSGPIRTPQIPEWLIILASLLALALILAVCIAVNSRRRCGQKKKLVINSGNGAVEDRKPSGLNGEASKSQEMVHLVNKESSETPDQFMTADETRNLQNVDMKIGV

Which “strength of bond to CD44 relative to chondroitin sulfate” value does the source give for Hyaluronic acid [HA] here?
Its value is “about 100 times”.
